Test results published in patent publication US4481139A, “Peptide antagonists of substance P” (Board of Regents, The University of Texas System, priority 1983, dated 1984).
Values joined by “and” are separate entries in the source; they are usually repeats but may differ in a detail not shown here. Equal entries are not always repeated. Non-standard residues stand in square brackets, D forms with d. Residues, ends and D or L forms follow the SMILES beside them. pGlu = O=C1CC[C@@H](C(=O)O)N1

Columns and labels:
[1] = system: terminal portion of the guinea pig ileum; assay: Antagonistic activity against substance P on the terminal portion of the guinea pig ileum; assay type: cell-based; details: analog at 10^-4 (concentration unit not given)
Method: The antagonistic activities of the analogs were evaluated using the terminal portion of the guinea pig ileum, as described by Yamaguchi et al. [Acta Chem. Scand. B33, 63 (1979)]. The biological assay data are in Table IV.
The sequence of substance P (SP) is expressed in the top of Table IV. The antagonistic activity is defined as the fold-increase in the concentration of SP in the presence of the analog to give 50% of the maximal response which is elicited by SP alone. The sequences of the analogs which were designed and synthesized are in Table IV. The eleven amino acids of SP are spaced across the top line to facilitate visual comparison of the amino acids in SP with those in the analogs. For example, analog I is also spaced across the page to show the sequence relationship to SP. On this basis, analog I is H-Arg^1,Pro^2,Lys^3,Pro^4,D-Phe^5,Gln^6,D-Trp^7,Phe^8 D-Trp^9,Leu^10,Leu^11 -NH2, but on the basis of conventional peptide nomenclature, analog I is expressed as [D-Phe^5,D-Trp^7,D-Trp^9,Leu^11 ]-SP5-11.

[2] = SP = 1; cited from earlier work
[3] = Solubility in 50% ethanol (footnote to Table IV); assay type: physicochemical

Molecule	Fold increase in conc. of SP in the presence of the analog to give 50% of the maximal response elicited by SP alone [1]	Relative activity in comparison with SP as 1 [2]	Solubility [3]
CC(C)C[C@H](NC(=O)[C@@H](Cc1c[nH]c2ccccc12)NC(=O)[C@H](Cc1ccccc1)NC(=O)[C@@H](Cc1c[nH]c2ccccc12)NC(=O)[C@H](CCC(N)=O)NC(=O)[C@@H]1CCC(=O)N1)C(=O)N[C@H](C(N)=O)[C@@H](C)O [Analog III, [Glp^5,D-Trp^7,D-Trp^9,Thr^11]--SP5-11] ([pGlu]Q[dW]F[dW]LT-NH2)	2 fold		
CC(C)C[C@H](NC(=O)[C@H](CC(C)C)NC(=O)[C@@H](Cc1c[nH]c2ccccc12)NC(=O)[C@H](Cc1ccccc1)NC(=O)[C@@H](Cc1c[nH]c2ccccc12)NC(=O)[C@H](CCC(N)=O)NC(=O)[C@@H]1CCC(=O)N1)C(N)=O [Analog V, [Glp^5,D-Trp^7,D-Trp^9,Leu^11]--SP5-11] ([pGlu]Q[dW]F[dW]LL-NH2)	17 fold		
Glp-Gln-Phe-Phe-Gly-Leu-Met-NH2 ([pGlu]QFFGLM-NH2; SMILES CSCC[C@H](NC(=O)[C@H](CC(C)C)NC(=O)CNC(=O)[C@H](Cc1ccccc1)NC(=O)[C@H](Cc1ccccc1)NC(=O)[C@H](CCC(N)=O)NC(=O)[C@@H]1CCC(=O)N1)C(N)=O) [truncated heptapeptide analog of SP from Yanaihara et al]		1.7	
[D-Phe^5,D-Trp^7,D-Trp^9,Leu^11 ]-SP5-11 [Analog I]	> 200 fold and 200 fold		difficulty soluble in 50% ethanol
